Experimental data as given in ChEMBL document CHEMBL5034010, “Novel Cephalosporin Conjugates Display Potent and Selective Inhibition of Imipenemase-Type Metallo-β-Lactamases” (J Med Chem, 2021).
Values after ≈ are worked out from the molar mass of the structure shown. Active and inactive are the calls of the source. The calls are words filed in the database; no cut-off is given here.

Assays:
[1] = test system: Escherichia coli; assay: Inhibition of Metallo-beta-lactamase VIM-2 in Escherichia coli clinical isolate assessed as MIC for meropenem antibacterial activity at 64 ug/ml (reference value: 8 ug/ml); conditions: dose 64.0 µg/ml
[2] = test system: Klebsiella pneumoniae; assay: Inhibition of Metallo-beta-lactamase IMP-28 in Klebsiella pneumoniae clinical isolate assessed as MIC for meropenem antibacterial activity at 128 ug/ml (reference value: 4 ug/ml); conditions: dose 128.0 µg/ml
[3] = test system: Klebsiella pneumoniae; assay: Inhibition of Metallo-beta-lactamase IMP-28 in Klebsiella pneumoniae clinical isolate assessed as fold reduction in meropenem MIC at 64 ug/ml; conditions: dose 64.0 µg/ml
[4] = test system: Escherichia coli; assay: Inhibition of Metallo-beta-lactamase NDM-1 in Escherichia coli clinical isolate assessed as MIC for meropenem antibacterial activity at 128 ug/ml (reference value: 32 ug/ml); conditions: dose 128.0 µg/ml
[5] = test system: Escherichia coli; assay: Antibacterial activity against beta-lactamase VIM2 producing Escherichia coli clinical isolate measured upto 128 ug/ml; format: functional, organism-based
[6] = test system: Klebsiella pneumoniae; assay: Inhibition of Metallo-beta-lactamase IMP-28 in Klebsiella pneumoniae clinical isolate assessed as fold reduction in meropenem MIC at 128 ug/ml; conditions: dose 128.0 µg/ml
[7] = test system: Escherichia coli; assay: Inhibition of Metallo-beta-lactamase VIM-2 in Escherichia coli clinical isolate assessed as fold reduction in meropenem MIC at 64 ug/ml; conditions: dose 64.0 µg/ml
[8] = test system: Escherichia coli; assay: Substrate activity at Escherichia coli beta-lactamase NDM-1 assessed as compound hydrolysis by measuring Km by Michaelis-Menten analysis
[9] = test system: Escherichia coli; assay: Substrate activity at Escherichia coli beta-lactamase VIM-2 assessed as compound hydrolysis by measuring Kcat/Km by Michaelis-Menten analysis
[10] = test system: Escherichia coli; assay: Substrate activity at Escherichia coli beta-lactamase NDM-1 assessed as compound hydrolysis by measuring Kcat by Michaelis-Menten analysis
[11] = Metabolic stability of the compound assessed as Klebsiella pneumoniae beta-lactamase IMP-28-mediated metabolism by (2R)-2-((R)-carboxy(2-phenylacetamido)methyl)-5-(((R)-carboxy(phenyl)methylthio)methyl)-5,6-dihydro-2H-1,3-thiazine-4-carboxylic acid by LC-MS analysis; format: ADME
[12] = test system: Enterobacter cloacae; assay: Inhibition of Metallo-beta-lactamase IMP-1 in Enterobacter cloacae clinical isolate assessed as fold reduction in meropenem MIC at 64 ug/ml; conditions: dose 64.0 µg/ml
[13] = test system: Escherichia coli; assay: Inhibition of Metallo-beta-lactamase VIM-2 in Escherichia coli clinical isolate assessed as fold reduction in meropenem MIC at 32 ug/ml; conditions: dose 32.0 µg/ml
[14] = test system: Klebsiella pneumoniae; assay: Antibacterial activity against beta-lactamase IMP-28 producing Klebsiella pneumoniae clinical isolate measured upto 128 ug/ml; format: functional, organism-based
[15] = test system: Escherichia coli; assay: Inhibition of Metallo-beta-lactamase NDM-1 in Escherichia coli clinical isolate assessed as fold reduction in meropenem MIC at 32 ug/ml; conditions: dose 32.0 µg/ml
[16] = test system: Escherichia coli; assay: Inhibition of Metallo-beta-lactamase VIM-2 in Escherichia coli clinical isolate assessed as fold reduction in meropenem MIC at 128 ug/ml; conditions: dose 128.0 µg/ml
[17] = Inhibition of Enterobacter cloacae IMP-1 using nitrocefin chromogenic substrate measured after 15 to 60 min at 25 degC by microplate reader
[18] = test system: Klebsiella pneumoniae; assay: Inhibition of Metallo-beta-lactamase IMP-28 in Klebsiella pneumoniae clinical isolate assessed as fold reduction in meropenem MIC at 32 ug/ml; conditions: dose 32.0 µg/ml
[19] = test system: Escherichia coli; assay: Inhibition of Metallo-beta-lactamase NDM-1 in Escherichia coli clinical isolate assessed as MIC for meropenem antibacterial activity at 64 ug/ml (reference value: 32 ug/ml); conditions: dose 64.0 µg/ml
[20] = test system: Escherichia coli; assay: Substrate activity at Escherichia coli beta-lactamase NDM-1 assessed as compound hydrolysis by measuring kcat/km by Michaelis-Menten analysis
[21] = test system: Enterobacter cloacae; assay: Inhibition of Metallo-beta-lactamase IMP-1 in Enterobacter cloacae clinical isolate assessed as MIC for meropenem antibacterial activity at 32 ug/ml (reference value: 32 ug/ml); conditions: dose 32.0 µg/ml
[22] = test system: Klebsiella pneumoniae; assay: Substrate activity at Klebsiella pneumoniae beta-lactamase IMP-28 assessed as compound hydrolysis by measuring Km by Michaelis-Menten analysis
[23] = test system: Enterobacter cloacae; assay: Inhibition of Metallo-beta-lactamase IMP-1 in Enterobacter cloacae clinical isolate assessed as MIC for meropenem antibacterial activity at 64 ug/ml (reference value: 32 ug/ml); conditions: dose 64.0 µg/ml
[24] = test system: Enterobacter cloacae; assay: Inhibition of Metallo-beta-lactamase IMP-1 in Enterobacter cloacae clinical isolate assessed as MIC for meropenem antibacterial activity at 128 ug/ml (reference value: 32 ug/ml); conditions: dose 128.0 µg/ml
[25] = test system: Escherichia coli; assay: Inhibition of Metallo-beta-lactamase NDM-1 in Escherichia coli clinical isolate assessed as fold reduction in meropenem MIC at 128 ug/ml; conditions: dose 128.0 µg/ml
[26] = test system: Escherichia coli; assay: Inhibition of Metallo-beta-lactamase NDM-1 in Escherichia coli clinical isolate assessed as fold reduction in meropenem MIC at 64 ug/ml; conditions: dose 64.0 µg/ml
[27] = test system: Klebsiella pneumoniae; assay: Substrate activity at Klebsiella pneumoniae beta-lactamase IMP-28 assessed as compound hydrolysis by measuring Kcat by Michaelis-Menten analysis
[28] = Inhibition of Escherichia coli beta-lactamase VIM-2 using nitrocefin chromogenic substrate measured after 15 to 60 min at 25 degC by microplate reader
[29] = test system: Enterobacter cloacae; assay: Inhibition of Enterobacter cloacae Metallo-beta-lactamase IMP-1
[30] = test system: Klebsiella pneumoniae; assay: Inhibition of Klebsiella pneumoniae beta Metallo-beta-lactamase IMP-28
[31] = Inhibition of Klebsiella pneumoniae beta-lactamase IMP-28 using nitrocefin chromogenic substrate measured after 15 to 60 min at 25 degC by microplate reader
[32] = test system: Enterobacter cloacae; assay: Antibacterial activity against beta-lactamase IMP1 producing Enterobacter cloacae clinical isolate measured upto 128 ug/ml; format: functional, organism-based
[33] = Stability of the compound assessed as Klebsiella pneumoniae beta-lactamase IMP-28-mediated degradation by measuring appearance of vinyl protons release measured after 120 mins by NMR spectra; format: ADME; conditions: 2 h
[34] = Inhibition of Escherichia coli beta-lactamase NDM-1 using nitrocefin chromogenic substrate measured after 15 to 60 min at 25 degC by microplate reader
[35] = test system: Escherichia coli; assay: Inhibition of Metallo-beta-lactamase VIM-2 in Escherichia coli clinical isolate assessed as MIC for meropenem antibacterial activity at 128 ug/ml (reference value: 8 ug/ml); conditions: dose 128.0 µg/ml
[36] = test system: Escherichia coli; assay: Inhibition of Metallo-beta-lactamase VIM-2 in Escherichia coli clinical isolate assessed as MIC for meropenem antibacterial activity at 32 ug/ml (reference value: 8 ug/ml); conditions: dose 32.0 µg/ml
[37] = test system: Klebsiella pneumoniae; assay: Inhibition of Metallo-beta-lactamase IMP-28 in Klebsiella pneumoniae clinical isolate assessed as MIC for meropenem antibacterial activity at 32 ug/ml (reference value: 4 ug/ml); conditions: dose 32.0 µg/ml
[38] = test system: Klebsiella pneumoniae; assay: Inhibition of Metallo-beta-lactamase IMP-28 in Klebsiella pneumoniae clinical isolate assessed as MIC for meropenem antibacterial activity at 64 ug/ml (reference value: 4 ug/ml); conditions: dose 64.0 µg/ml
[39] = test system: Enterobacter cloacae; assay: Inhibition of Metallo-beta-lactamase IMP-1 in Enterobacter cloacae clinical isolate assessed as fold reduction in meropenem MIC at 128 ug/ml; conditions: dose 128.0 µg/ml
[40] = test system: Escherichia coli; assay: Substrate activity at Escherichia coli beta-lactamase VIM-2 assessed as compound hydrolysis by measuring Kcat by Michaelis-Menten analysis
[41] = test system: Enterobacter cloacae; assay: Inhibition of Metallo-beta-lactamase IMP-1 in Enterobacter cloacae clinical isolate assessed as fold reduction in meropenem MIC at 32 ug/ml; conditions: dose 32.0 µg/ml
[42] = test system: Klebsiella pneumoniae; assay: Substrate activity at Klebsiella pneumoniae beta-lactamase IMP-28 assessed as compound hydrolysis by measuring Kcat/Km by Michaelis-Menten analysis
[43] = test system: Escherichia coli; assay: Antibacterial activity against beta-lactamase NDM1 producing Escherichia coli clinical isolate measured upto 128 ug/ml; format: functional, organism-based
[44] = Stability of the compound in Muller hinton broth assessed compound remaining measured after 15 hrs by HPLC analysis; format: physicochemical; conditions: Mueller Hinton broth, read-out: Stability
[45] = test system: Escherichia coli; assay: Substrate activity at Escherichia coli beta-lactamase VIM-2 assessed as compound hydrolysis by measuring Km by Michaelis-Menten analysis
[46] = test system: Escherichia coli; assay: Inhibition of Metallo-beta-lactamase NDM-1 in Escherichia coli clinical isolate assessed as MIC for meropenem antibacterial activity at 32 ug/ml (reference value: 32 ug/ml); conditions: dose 32.0 µg/ml

O=C(Cc1ccccc1)N[C@@H]1C(=O)N2C(C(=O)O)=C(CS[C@H](Cc3ccccc3)C(=O)O)CS[C@H]12
MIC [1]: 4 µg/mL (≈ 7.8 µM) | MIC [2]: < 0.063 µg/mL | fold change (FC) [3]: > 64 | MIC [4]: 8 µg/mL (≈ 15.6 µM) | Activity [5]: inactive | fold change (FC) [6]: > 64 | fold change (FC) [7]: 2 | Km [8]: 21.2 µM | kcat/Km [9]: 546000 M⁻¹ s⁻¹ | kcat [10]: 17.4 s⁻¹ | Drug metabolism [11]: Metabolite_Detected | fold change (FC) [12]: 32 | fold change (FC) [13]: 2 | Activity [14]: inactive | fold change (FC) [15]: 2 | fold change (FC) [16]: 4 | IC50 [17]: 4.7 µM | fold change (FC) [18]: > 64 | MIC [19]: 8 µg/mL (≈ 15.6 µM) | kcat/Km [20]: 821000 M⁻¹ s⁻¹ | MIC [21]: 1 µg/mL (≈ 1.95 µM) | Km [22]: 249 µM | MIC [23]: 1 µg/mL (≈ 1.95 µM) | MIC [24]: 0.5 µg/mL (≈ 0.975 µM) | fold change (FC) [25]: 4 | fold change (FC) [26]: 4 | kcat [27]: 2.83 s⁻¹ | IC50 [28]: 16 µM | inhibition [29]: Active | inhibition [30]: Active | IC50 [31]: 1.1 µM | Activity [32]: inactive | Stability [33]: Stable | IC50 [34]: 94 µM | MIC [35]: 2 µg/mL (≈ 3.9 µM) | MIC [36]: 4 µg/mL (≈ 7.8 µM) | MIC [37]: < 0.063 µg/mL | MIC [38]: < 0.063 µg/mL | fold change (FC) [39]: 64 | kcat [40]: 2.35 s⁻¹ | fold change (FC) [41]: 32 | kcat/Km [42]: 11000 M⁻¹ s⁻¹ | Activity [43]: inactive | remaining at 15 h [44]: > 95% | Km [45]: 4.3 µM | MIC [46]: 16 µg/mL (≈ 31.2 µM)
